Results: PubChem BioAssay (NCI)
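GI50 is the concentration that inhibits growth by half. TGI: total growth inhibition.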

How the values were obtained:
Assay in all cases: growth of human tumour cells (NCI), 384-well format
COLO 205 colon = test system: COLO 205 colon
SR leukemia = test system: SR leukemia
SK-MEL-28 melanoma = test system: SK-MEL-28 melanoma
CAKI-1 renal = test system: CAKI-1 renal
K-562 leukemia = test system: K-562 leukemia
SNB-75 CNS = test system: SNB-75 CNS
NCI-H226 lung = test system: NCI-H226 lung
UACC-62 melanoma = test system: UACC-62 melanoma
SK-MEL-5 melanoma = test system: SK-MEL-5 melanoma
NCI-H522 lung = test system: NCI-H522 lung
RXF 393 renal = test system: RXF 393 renal
OVCAR-4 ovarian = test system: OVCAR-4 ovarian
HS 578T breast = test system: HS 578T breast
SF-268 CNS = test system: SF-268 CNS
NCI-H23 lung = test system: NCI-H23 lung
MCF7 breast = test system: MCF7 breast
OVCAR-8 ovarian = test system: OVCAR-8 ovarian
HCT-15 colon = test system: HCT-15 colon
A549 NSCLC = test system: A549 NSCLC
HOP-62 NSCLC = test system: HOP-62 NSCLC
HT29 colon = test system: HT29 colon
HCC-2998 colon = test system: HCC-2998 colon
MDA-MB-468 breast = test system: MDA-MB-468 breast
SNB-19 CNS = test system: SNB-19 CNS
A498 renal = test system: A498 renal
CCRF-CEM leukemia = test system: CCRF-CEM leukemia
KM12 colon = test system: KM12 colon
MDA-MB-435 melanoma = test system: MDA-MB-435 melanoma
NCI/ADR-RES ovarian = test system: NCI/ADR-RES ovarian
SF-295 CNS = test system: SF-295 CNS
SN12C renal = test system: SN12C renal
HOP-92 NSCLC = test system: HOP-92 NSCLC
MOLT-4 leukemia = test system: MOLT-4 leukemia
SF-539 CNS = test system: SF-539 CNS
BT-549 breast = test system: BT-549 breast
M14 melanoma = test system: M14 melanoma
SW-620 colon = test system: SW-620 colon
TK-10 renal = test system: TK-10 renal
T-47D breast = test system: T-47D breast
MDA-MB-231 breast = test system: MDA-MB-231 breast
IGROV1 ovarian = test system: IGROV1 ovarian
EKVX NSCLC = test system: EKVX NSCLC
NCI-H460 NSCLC = test system: NCI-H460 NSCLC
OVCAR-3 ovarian = test system: OVCAR-3 ovarian
SK-OV-3 ovarian = test system: SK-OV-3 ovarian
MALME-3M melanoma = test system: MALME-3M melanoma
NCI-H322M lung = test system: NCI-H322M lung
786-0 renal = test system: 786-0 renal
LOX IMVI melanoma = test system: LOX IMVI melanoma
ACHN renal = test system: ACHN renal
UACC-257 melanoma = test system: UACC-257 melanoma
DU-145 prostate = test system: DU-145 prostate
OVCAR-5 ovarian = test system: OVCAR-5 ovarian
U251 glioblastoma = test system: U251 glioblastoma
PC-3 prostate = test system: PC-3 prostate

Q: Which GI50 (COLO 205 colon) does the source give for Nc1ncc(-c2cnn(CCO)c2)c2scc(-c3ccc(NC(=O)Nc4cccc(F)c4)cc3)c12 here?
A: < 10 nM

Q: And the TGI (COLO 205 colon)?
A: 241 nM

Q: What about the GI50 (SR leukemia) of the same compound?
A: < 10 nM

Q: What about the TGI (SR leukemia) of the same compound?
A: < 10 nM

Q: What about the GI50 (SK-MEL-28 melanoma) of the same compound?
A: 402 nM

Q: What about the TGI (SK-MEL-28 melanoma) of the same compound?
A: 1720 nM

Q: And the GI50 (CAKI-1 renal)?
A: 212 nM

Q: And the TGI (CAKI-1 renal)?
A: 1200 nM

Q: What about the GI50 (K-562 leukemia) of the same compound?
A: 16.7 nM

Q: And the TGI (K-562 leukemia)?
A: 42.9 nM

Q: What about the GI50 (SNB-75 CNS) of the same compound?
A: 172 nM

Q: And the TGI (SNB-75 CNS)?
A: 740 nM

Q: And the GI50 (NCI-H226 lung)?
A: 238 nM

Q: And the TGI (NCI-H226 lung)?
A: 2090 nM

Q: And the GI50 (UACC-62 melanoma)?
A: 376 nM

Q: And the TGI (UACC-62 melanoma)?
A: 1640 nM

Q: What about the GI50 (SK-MEL-5 melanoma) of the same compound?
A: 807 nM

Q: What about the TGI (SK-MEL-5 melanoma) of the same compound?
A: 2070 nM

Q: And the GI50 (NCI-H522 lung)?
A: 220 nM

Q: What about the TGI (NCI-H522 lung) of the same compound?
A: 928 nM

Q: And the GI50 (RXF 393 renal)?
A: 275 nM

Q: What about the TGI (RXF 393 renal) of the same compound?
A: 1460 nM

Q: What about the GI50 (OVCAR-4 ovarian) of the same compound?
A: 674 nM

Q: What about the TGI (OVCAR-4 ovarian) of the same compound?
A: 2380 nM

Q: And the GI50 (HS 578T breast)?
A: 226 nM

Q: And the TGI (HS 578T breast)?
A: 943 nM

Q: And the GI50 (SF-268 CNS)?
A: 354 nM

Q: And the TGI (SF-268 CNS)?
A: 1920 nM

Q: What about the GI50 (NCI-H23 lung) of the same compound?
A: 178 nM

Q: And the TGI (NCI-H23 lung)?
A: 603 nM

Q: What about the GI50 (MCF7 breast) of the same compound?
A: 318 nM

Q: And the TGI (MCF7 breast)?
A: 1830 nM

Q: What about the GI50 (OVCAR-8 ovarian) of the same compound?
A: 315 nM

Q: And the TGI (OVCAR-8 ovarian)?
A: 2130 nM

Q: And the GI50 (HCT-15 colon)?
A: 349 nM

Q: And the TGI (HCT-15 colon)?
A: 1720 nM

Q: What about the GI50 (A549 NSCLC) of the same compound?
A: 263 nM

Q: What about the TGI (A549 NSCLC) of the same compound?
A: 3770 nM

Q: What about the GI50 (HOP-62 NSCLC) of the same compound?
A: 309 nM

Q: And the TGI (HOP-62 NSCLC)?
A: 1810 nM

Q: What about the GI50 (HT29 colon) of the same compound?
A: 507 nM

Q: And the TGI (HT29 colon)?
A: 2640 nM

Q: What about the GI50 (HCC-2998 colon) of the same compound?
A: 1160 nM

Q: And the TGI (HCC-2998 colon)?
A: 2550 nM

Q: What about the GI50 (MDA-MB-468 breast) of the same compound?
A: 18.8 nM

Q: And the TGI (MDA-MB-468 breast)?
A: 74.9 nM

Q: What about the GI50 (SNB-19 CNS) of the same compound?
A: 836 nM

Q: And the TGI (SNB-19 CNS)?
A: 2550 nM

Q: What about the GI50 (A498 renal) of the same compound?
A: 312 nM

Q: What about the TGI (A498 renal) of the same compound?
A: 1720 nM

Q: What about the GI50 (CCRF-CEM leukemia) of the same compound?
A: < 10 nM

Q: What about the TGI (CCRF-CEM leukemia) of the same compound?
A: < 10 nM

Q: What about the GI50 (KM12 colon) of the same compound?
A: < 10 nM

Q: And the TGI (KM12 colon)?
A: 1210 nM

Q: And the GI50 (MDA-MB-435 melanoma)?
A: 317 nM

Q: And the TGI (MDA-MB-435 melanoma)?
A: 1890 nM

Q: And the GI50 (NCI/ADR-RES ovarian)?
A: 363 nM

Q: What about the TGI (NCI/ADR-RES ovarian) of the same compound?
A: 10000 nM

Q: And the GI50 (SF-295 CNS)?
A: 186 nM

Q: And the TGI (SF-295 CNS)?
A: 1370 nM

Q: And the GI50 (SN12C renal)?
A: 179 nM

Q: What about the TGI (SN12C renal) of the same compound?
A: 555 nM

Q: And the GI50 (HOP-92 NSCLC)?
A: 238 nM

Q: What about the TGI (HOP-92 NSCLC) of the same compound?
A: 1100 nM

Q: What about the GI50 (MOLT-4 leukemia) of the same compound?
A: < 10 nM

Q: And the TGI (MOLT-4 leukemia)?
A: < 10 nM

Q: What about the GI50 (SF-539 CNS) of the same compound?
A: 169 nM

Q: And the TGI (SF-539 CNS)?
A: 1110 nM

Q: And the GI50 (BT-549 breast)?
A: 323 nM

Q: What about the TGI (BT-549 breast) of the same compound?
A: 1280 nM

Q: What about the GI50 (M14 melanoma) of the same compound?
A: 147 nM

Q: What about the TGI (M14 melanoma) of the same compound?
A: 1140 nM

Q: And the GI50 (SW-620 colon)?
A: 242 nM

Q: What about the TGI (SW-620 colon) of the same compound?
A: 1130 nM

Q: What about the GI50 (TK-10 renal) of the same compound?
A: 920 nM

Q: What about the TGI (TK-10 renal) of the same compound?
A: 3620 nM

Q: What about the GI50 (T-47D breast) of the same compound?
A: 1450 nM

Q: And the TGI (T-47D breast)?
A: 3310 nM

Q: And the GI50 (MDA-MB-231 breast)?
A: 1010 nM

Q: What about the TGI (MDA-MB-231 breast) of the same compound?
A: 3190 nM

Q: What about the GI50 (IGROV1 ovarian) of the same compound?
A: 385 nM

Q: What about the TGI (IGROV1 ovarian) of the same compound?
A: 2550 nM

Q: And the GI50 (EKVX NSCLC)?
A: 1030 nM

Q: And the TGI (EKVX NSCLC)?
A: 2980 nM

Q: What about the GI50 (NCI-H460 NSCLC) of the same compound?
A: < 10 nM

Q: And the TGI (NCI-H460 NSCLC)?
A: 1060 nM

Q: And the GI50 (OVCAR-3 ovarian)?
A: 188 nM

Q: And the TGI (OVCAR-3 ovarian)?
A: 2010 nM

Q: And the GI50 (SK-OV-3 ovarian)?
A: 297 nM

Q: And the TGI (SK-OV-3 ovarian)?
A: 1300 nM

Q: And the GI50 (MALME-3M melanoma)?
A: 53.5 nM

Q: And the TGI (MALME-3M melanoma)?
A: 646 nM

Q: What about the GI50 (NCI-H322M lung) of the same compound?
A: 634 nM

Q: And the TGI (NCI-H322M lung)?
A: 2890 nM

Q: What about the GI50 ([…]-0 renal) of the same compound?
A: 373 nM

Q: And the TGI (786-0 renal)?
A: 1740 nM

Q: And the GI50 (LOX IMVI melanoma)?
A: 318 nM

Q: What about the TGI (LOX IMVI melanoma) of the same compound?
A: 1320 nM

Q: And the GI50 (ACHN renal)?
A: 352 nM

Q: What about the TGI (ACHN renal) of the same compound?
A: 1770 nM

Q: And the GI50 (UACC-257 melanoma)?
A: 311 nM

Q: And the TGI (UACC-257 melanoma)?
A: 1390 nM

Q: And the GI50 (DU-145 prostate)?
A: 462 nM

Q: What about the TGI (DU-145 prostate) of the same compound?
A: 2380 nM

Q: And the GI50 (OVCAR-5 ovarian)?
A: 612 nM

Q: What about the TGI (OVCAR-5 ovarian) of the same compound?
A: 2200 nM

Q: And the GI50 (U251 glioblastoma)?
A: 812 nM

Q: And the TGI (U251 glioblastoma)?
A: 2170 nM

Q: What about the GI50 (PC-3 prostate) of the same compound?
A: 1270 nM

Q: And the TGI (PC-3 prostate)?
A: 3730 nM
